Tests used:
[1] = parameters: method as in Ponting et al. 26; conditions: polymer, TGA under nitrogen; ref Ponting et al. 26; cited from earlier work
guinea pig = conditions: cited from earlier work
Female CBA/Ca mice = conditions: cited from earlier work
[2] = skin permeability, static Franz diffusion cells; assay type: in vitro ADME, pig
Procedure: For the permeability experiments, ultra-performance liquid chromatography-electrospray ionization tandem mass spectroscopy (UPLC)-ESI-MS/MS analysis was carried out using a Xevo TQ-S micro triple quadrupole mass spectrometer equipped with an electrospray interface and coupled to an Acquity UPLC H-Class Plus system from Waters. Separation was achieved on an ACE Excel C18-PFP column (75 × 2.1 mm, 1.7 μm) from Advanced Chromatography Technologies Ltd. (Aberdeen, Scotland). Mobile phase A consisted of 0.1% formic acid and 5% acetonitrile in water, whereas mobile phase B consisted of 0.1% formic acid and 5% water in acetonitrile. The gradient program used was as follows: 20% B (0–2 min), 20–80% B (2–9 min), 80–95% B (9–9.1 min), 95% B (9.1–12 min), 95–20% B (12–12.1 min), 20% B (12.1–15 min). The flow rate was set to 0.3 mL/min and the injection volume was 2 μL. Analysis was performed in positive ionization mode using a Multiple Reaction Monitoring (MRM) method. The optimal parameters were capillary voltage 1.5 (kV), desolvation temperature 650 °C, desolvation gas 850 L/h, and cone 100 L/h.
The Franz diffusion cell experiment was based on the OECD Test Guidelines.[35] Static Franz diffusion cells equipped with pig ex vivo epidermis were used to assess the permeability of isosorbide bis-epoxides 2 and 3. Freshly cut pig ears were received frozen and stored at −20 °C until used for permeability assessment. One day before the experiment, the ears were transferred at +4 °C and allowed to thaw. The ears were then washed, shaved, and carefully cut with a Watson Dermatome skin graft knife to obtain 0.1 mm pieces of the epidermis layer. The integrity of the skin (transparent and intact) was determined by ocular inspection. Thereafter, the epidermis layer was cut and positioned between the donor and receptor compartment of each Franz cell. The receptor compartments were filled with 5 mL of ethanol/PBS (1:1) and equipped with a small magnetic stir bar to ensure mixing while maintaining a constant temperature of the circulating water at 37 °C. To equilibrate the skin, the upper chamber was filled with 0.5 mL of ethanol/PBS (1:1) which was later removed and replaced with the donor solution (50 μL) containing either 2 or 3 (0.1 mg/mL) or DGEBA (0.1 mg/mL) used as a positive control. A procedural blank containing only 50 μL of ethanol/PBS (1:1) in the donor compartment was also included in the experimental setup. Samples of 100 μL were collected after 0–2 min, 1, 2, 3, 4, 5, and 6 h. At each timepoint, a sample aliquot was removed and 100 μL of ethanol/PBS (1:1) was added to the receptor compartment to keep the volume constant. After 6 h, the skin from each Franz cell was extracted overnight in 5 mL of ethanol/PBS (1,1). Triplicate experiments were performed for each compound. The obtained samples were analyzed with UPLC-ESI-MS/MS (see Figure S2 for parameters) and quantification was based on external calibration curves. The limit of quantification (LOQ) was determined by the analysis of the analyte at low concentration and was calculated as 10 times the signal-to-noise ratio.

[3] = Extract: skin extracted overnight after 6 h

## CC(C)(c1ccc(OCC2CO2)cc1)c1ccc(OCC2CO2)cc1 (stereo not drawn) [DGEBA, diglycidyl ether of bisphenol A, reference compound]
[1]
  Ea (activation energy for the decomposition of the cured epoxy resins): 40.2 kcal/mol
  IDT (initial decomposition temperature): 358 °C
  Rmax (maximum weight loss rate): –2.17 %/°C
  Tmax (temperature at the maximum rate of weight loss): 408 °C
Guinea pig
  skin sensitizer classification in guinea pig maximization test: strong
Female CBA/Ca mice
  EC3: 0.036 M
[2]; 6 h experiment, donor 0.1 mg/mL
  permeation of epidermis: observed
[2]; [3]
  Average (µM): 0.206 µM
  Average (µg/ml): 0.0700 µg/mL
  Replicate 1: 0.0658 µg/mL
  Replicate 2 (µg/ml): < LOQ
  Replicate 3: 0.0742 µg/mL
[2]; pig, w/w %, sum of receptor compartment after 6 h and overnight skin extraction
  recovery at 6 h, 0.1 mg/mL: 35%
[2]; receptor fluid, timepoint 0 h
  Average (µM): 0 µM
  Average (µg/ml): 0 µg/mL
  Replicate 1 (µg/ml): < LOQ
  Replicate 2 (µg/ml): < LOQ
  Replicate 3 (µg/ml): < LOQ
[2]; receptor fluid, timepoint 1 h
  Average (µM): 0 µM
  Average (µg/ml): 0 µg/mL
  Replicate 1 (µg/ml): < LOQ
  Replicate 2 (µg/ml): < LOQ
  Replicate 3 (µg/ml): < LOQ
[2]; receptor fluid, timepoint 2 h
  Average (µM): 0.595 µM
  Average (µg/ml): 0.203 µg/mL
  Replicate 1: 0.315 µg/mL
  Replicate 2: 0.184 µg/mL
  Replicate 3: 0.108 µg/mL
[2]; receptor fluid, timepoint 3 h
  Average (µM): 0.818 µM
  Average (µg/ml): 0.278 µg/mL
  Replicate 1: 0.419 µg/mL
  Replicate 2: 0.239 µg/mL
  Replicate 3: 0.177 µg/mL
[2]; receptor fluid, timepoint 4 h
  Average (µM): 0.868 µM
  Average (µg/ml): 0.296 µg/mL
  Replicate 1: 0.456 µg/mL
  Replicate 2: 0.229 µg/mL
  Replicate 3: 0.202 µg/mL
[2]; receptor fluid, timepoint 5 h
  Average (µM): 0.851 µM
  Average (µg/ml): 0.290 µg/mL
  Replicate 1: 0.436 µg/mL
  Replicate 2: 0.237 µg/mL
  Replicate 3: 0.196 µg/mL
[2]; receptor fluid, timepoint 6 h
  Average (µM): 0.817 µM
  Average (µg/ml): 0.278 µg/mL
  Replicate 1: 0.406 µg/mL
  Replicate 2: 0.218 µg/mL
  Replicate 3: 0.210 µg/mL
[2]; w/w %
  amount in receptor fluid after 6 h (%): 27.8 ± 9.0%
[2]; w/w %, overnight skin extraction after 6 h
  amount on/in skin (%): 7.0 ± 0.4%
[2]; w/w %, sum of receptor compartment after 6 h and overnight skin extraction
  recovery (%): 34.8 ± 9.4%

— article PMC9945177, “Nature-Derived Epoxy Resin Monomers with Reduced Sensitizing Capacity—Isosorbide-Based Bis-Epoxides” (Chemical Research in Toxicology, 2023)
